Laboratory results reported in patent US6608189B1, “Fluorescent protein sensors for measuring the pH of a biological sample” (University of California, priority 1998, dated 2003).

Tests used:
[1] = biological target: YFP (yellow fluorescent protein; GFP quadruple mutant T203Y/S65G/V68L/S72A, also carrying Q80R) (Aequorea victoria) [GFP: P42212]; test: X-ray crystal structure of YFP, largest contact area with an adjacent molecule
HeLa cells = test: pH in cytosol and nucleus of cells expressing EYFP; format: cell-based; settings: reversible on wash-out
Protocol: HeLa cells and AT-20 cells grown on glass coverslips were transiently lipo-transfected (Lipofectin™, GIBCO) with polynucleotide constructs encoding EYFP.
(§1) Cells were imaged between 2 and 4 days after transfection at 22° C. with a cooled charge-coupled device camera (Photometrices, Tucson, Ariz.) as described in Miyawaki et al., Nature 388:882, (1997). The interference filters (Omega Optical and Chroma Technology, Brattleboro, Vt.) used for excitation and emission were 440 ECFP; 480 535 EGFP or EYFP. The dichroic mirrors were 455 DCLP for ECFP and 505 DCLP for EGFP or EYFP. Regions of interest were selected manually, and pixel intensities were spatially averaged after background subtraction. A binning of 2 was used to improve signal/noise and minimize photodamage and photoisomerization of EYFP. High KCl buffer plus 5 μM each of the ionophores nigericin (Fluka) and monensin (Calbiochem) was used for in situ titrations in living cells. Cells were loaded with cytosolic pH indicators by incubation with 3 μM carboxy-SNARF/AM or BCECF/AM (Molecular Probes) for 45 minutes, then washed for 30 minutes, all at 22° C.
Calibration of fluorescence intensity with pH in situ was accomplished with a mix of the alkali cation/H+ ionophores nigericin and monensin in bath solutions of defined pH and high K+. Fluorescence equilibrated within 1-4 minutes after each exchange of solution.

[2] = system: mitochondrial matrix of HeLa cells; test: mitochondrial matrix pH with mito-YFP H148G in HeLa cells; format: cell-based; settings: 5 uM
Protocol: YFP H148G expression was monitored by observing fluorescence over time. Mitochondrial pH was also monitored by pH titration as described in Example 3 using nigericin and monensin.
5 μM CCCp was added at about t≈300 seconds. […] Then a calibration was performed by perfusing the cells with extracellular medium of pH 7, 7.5, 8, and 8.35 containing the ionophores nigericin plus monensin to equilibrate mitochondrial pH and extracellular pH. Fluorescence in mitochondria increased stepwise with each change of extracellular pH.

[3] = system: mitochondria of HeLa cells; test: GFP T203I as pH-insensitive reference in mitochondria of HeLa cells; format: cell-based; settings: control experiments
Protocol: To identify a GFP sensor protein suitable for use as a reference protein for measuring mitochondrial matrix pH, the GFP mutant T203I was expressed in the mitochondria of HeLa cells.
Fluorescence of HeLa cells transfected with the GFP T203I mutant was monitored for about 400 seconds using an excitation ratio of 480 nm/400 nm. 10 μM CCCP was then added to the cells, and fluorescence was monitored for an additional 250 seconds. […] In control experiments, it was observed that addition of CCCP corresponded to a drop in pH of about 1 unit. Thus, the GFP T203I mutant is suitable for use as a reference, pH-insensitive mutant.

[4] = system: mitochondrial matrix of HeLa cells; test: pH in the mitochondrial matrix with EYFP-mito; format: cell-based; settings: HeLa cells expressing EYFP-mito
Protocol: To measure pH in the mitochondrial matrix using mutant GFP sensor proteins, HeLa cells and neonatal rat cardiomyocytes were transfected with the fluorescent protein pH sensor EYFP-mito. A Bio-Rad MRC-1000 confocal microscope was used for analysis of the targeted protein. […] In situ pH titration was performed with nigericin/monensin as described in Example 3.

[5] = system: mitochondrial matrix of chick skeletal myotubes; test: mitochondrial matrix pH with mito-YFP H148G in chick skeletal myotubes; format: cell-based; settings: 2 uM, t about 1400 seconds
Excerpt: Fluorescence was also examined, and pH measured, in primary cultures of chick skeletal myotubes transfected with the mito-YFP H148G mutant. […] Thereafter fluorescence continued to be observed during calibration at ph 6.9, 7.6 and 8.0.

[6] = system: mitochondrial matrix of HeLa cells; test: mitochondrial matrix pH with mito-YFP H148Q in HeLa cells; format: cell-based; settings: 10 uM in high KCl titration buffer
Protocol: The YFP H148Q mutant has a pKa of about 7.4, which is intermediate between the pKa of EYFP and YFP mutant H148G. […] Fluorescence was measured over time (beginning at t≈0), including following the addition of 10 μM nigericin in high KCL titration buffer at t≈500 seconds.
Fluorescence decreased to about 175 units at t=1000 seconds by addition of nigericin, which lowered the pH to about 6.9. Fluorescence then returned stepwise to 400 units with each change of the extracellular medium.

[7] = system: Golgi lumen of HeLa cells; test: pH in the Golgi lumen with GT-EYFP; format: cell-based; settings: HeLa cells expressing GT-EYFP
Protocol: as §1
The pH of the Golgi lumen was measured by transfecting HeLa or AT-20 cells with the constructs GT-ECFP, GT-EGFP, or GT-EYFP. Bright juxtanuclear fluorescence was observed, with little increase in diffuse staining above autofluorescnce in most cells.
The pH gradient across the Golgi membrane is maintained by the electrogenic ATP-dependent H^+ pump (V-ATPase). The V-ATPase generates a ΔpH (acidic inside) and Δψ(positive inside), which opposes further H^+ transport. The movement of counter-ions, Cl^− in (or K^+ out), with H^+ uptake would shunt the Δψ, allowing a larger ΔpH to be generated. These mechanisms were investigated in intact single HeLa cells transfected with GT-EYFP.

macrophage phagosomes = settings: cited from earlier work
[8] = system: Golgi lumen of HeLa cells; test: ratiometric Golgi pH with GT-EYFP and GT-ECFP; format: cell-based; settings: cotransfected HeLa cells
Excerpt: Quantitative measurements of fluorescence with nonratiometric indicators can suffer from artifacts as a result of cell movement or focusing. To correct for these effects, the cyan-emitting mutant GT-ECFP was co-transfected into cells along with GT-EYFP. ECFP has excitation and emission peaks that can be separated from those of EYFP by appropriate filters. In addition, ECFP is less pH-sensitive than EYFP (see FIG. 2B).
Although the ratio of EYFP to ECFP emission varied between cells, probably reflecting a different concentration of GT-EYFP and GT-ECFP in the Golgi lumen, it changed with pH as expected (FIG. 3B). Bafilomcin A1 raised the GT-EYFP/GT-ECFP emission ratio, i.e, it raised pHG.

For “YFP (yellow fluorescent protein; GFP quadruple mutant T203Y/S65G/V68L/S72A, also carrying Q80R) (from UniProt P42212 1-238)”, the contact area on one monomer surface [1] was 722 Å2.
With CC(O)C(=O)O (stereo not shown) [lactate] the “change of EYFP fluorescence (pH) on perfusion” value (HeLa cells) was “decrease in fluorescence”.
In the case of N#CC(C#N)=NNc1cccc(Cl)c1 [CCCP, carbonylcyanide m-chlorophenylhydrazone], the “mitochondrial pH after addition” value [2] is reported as 7.0, the “drop in pH on addition” value [3] is reported as “about 1 unit” and the “mitochondrial pH after acidification by the protonophore” value [4] is reported as roughly 7. For the same compound, the “mitochondrial pH after addition” value [5] was 6.9.
For CO[C@@H]1C[C@@H](C[C@H]2CC[C@H](C)[C@H]([C@@H](C)C(=O)O)O2)O[C@]2(O[C@](C)([C@H]3CC[C@@](C)([C@@H]4O[C@@H]([C@H]5O[C@@](O)(CO)[C@H](C)C[C@@H]5C)C[C@@H]4C)O3)C[C@H]2C)[C@@H]1C [nigericin], the “mitochondrial pH after addition” value [6] was “about 6.9”.
In the case of CO/C1=C\C(C)=C\[C@@H](C)[C@@H](O)[C@@H](C)C/C(C)=C/C=C/[C@H](OC)[C@@H]([C@@H](C)[C@@H](O)[C@H](C)[C@@]2(O)C[C@@H](O)[C@H](C)[C@@H](C(C)C)O2)OC1=O [bafilomycin A1], the “increase of pHG” value ([7]; 0.2 uM) is reported as “about 0.6 units”, the pHG after treatment ([7]; 0.2 uM, n=12 cells) is reported as 7.16 and the “initial rate of Golgi alkalinization” value ([7]; n=12 cells) is reported as 0.52 pH units per minute. The “rate of alkalinization reported for other acidic compartments” value (macrophage phagosomes) was 0.09 pH/min and the “GT-EYFP/GT-ECFP emission ratio (pHG)” value [8] was “raised”.
In the case of Cl.N [NH4Cl], the “change of EYFP fluorescence (pH) on perfusion” value (HeLa cells) is reported as “increase in fluorescence”.
